In BindingDB's records for doi:10.1021/acsmedchemlett.3c00104 (Novartis Institutes for Biomedical Research, 2023) one finds Kd data, which are given here for 11 compounds.

Test [1] has as its target T1, DDB1- and CUL4-associated factor 1 (Homo sapiens, UniProt Q9Y4B6). Description: Binding affinity to Avi-tagged DCAF1 (1073 to 1399 residues) (unknown origin) expressed in baculovirus infected in Sf9 insect cells by SPR analysis. On the technique in general: Surface plasmon resonance follows binding to a sensor surface in real time, without labels.
Test [2] addresses T1, DDB1- and CUL4-associated factor 1. Description: Binding affinity to Avi-tagged DCAF1 (1039 to 1401 residues) (unknown origin) expressed in baculovirus infected in Sf9 insect cells by NMR analysis.

T1 sequence (Q9Y4B6 whole entry, the tested form may be a part): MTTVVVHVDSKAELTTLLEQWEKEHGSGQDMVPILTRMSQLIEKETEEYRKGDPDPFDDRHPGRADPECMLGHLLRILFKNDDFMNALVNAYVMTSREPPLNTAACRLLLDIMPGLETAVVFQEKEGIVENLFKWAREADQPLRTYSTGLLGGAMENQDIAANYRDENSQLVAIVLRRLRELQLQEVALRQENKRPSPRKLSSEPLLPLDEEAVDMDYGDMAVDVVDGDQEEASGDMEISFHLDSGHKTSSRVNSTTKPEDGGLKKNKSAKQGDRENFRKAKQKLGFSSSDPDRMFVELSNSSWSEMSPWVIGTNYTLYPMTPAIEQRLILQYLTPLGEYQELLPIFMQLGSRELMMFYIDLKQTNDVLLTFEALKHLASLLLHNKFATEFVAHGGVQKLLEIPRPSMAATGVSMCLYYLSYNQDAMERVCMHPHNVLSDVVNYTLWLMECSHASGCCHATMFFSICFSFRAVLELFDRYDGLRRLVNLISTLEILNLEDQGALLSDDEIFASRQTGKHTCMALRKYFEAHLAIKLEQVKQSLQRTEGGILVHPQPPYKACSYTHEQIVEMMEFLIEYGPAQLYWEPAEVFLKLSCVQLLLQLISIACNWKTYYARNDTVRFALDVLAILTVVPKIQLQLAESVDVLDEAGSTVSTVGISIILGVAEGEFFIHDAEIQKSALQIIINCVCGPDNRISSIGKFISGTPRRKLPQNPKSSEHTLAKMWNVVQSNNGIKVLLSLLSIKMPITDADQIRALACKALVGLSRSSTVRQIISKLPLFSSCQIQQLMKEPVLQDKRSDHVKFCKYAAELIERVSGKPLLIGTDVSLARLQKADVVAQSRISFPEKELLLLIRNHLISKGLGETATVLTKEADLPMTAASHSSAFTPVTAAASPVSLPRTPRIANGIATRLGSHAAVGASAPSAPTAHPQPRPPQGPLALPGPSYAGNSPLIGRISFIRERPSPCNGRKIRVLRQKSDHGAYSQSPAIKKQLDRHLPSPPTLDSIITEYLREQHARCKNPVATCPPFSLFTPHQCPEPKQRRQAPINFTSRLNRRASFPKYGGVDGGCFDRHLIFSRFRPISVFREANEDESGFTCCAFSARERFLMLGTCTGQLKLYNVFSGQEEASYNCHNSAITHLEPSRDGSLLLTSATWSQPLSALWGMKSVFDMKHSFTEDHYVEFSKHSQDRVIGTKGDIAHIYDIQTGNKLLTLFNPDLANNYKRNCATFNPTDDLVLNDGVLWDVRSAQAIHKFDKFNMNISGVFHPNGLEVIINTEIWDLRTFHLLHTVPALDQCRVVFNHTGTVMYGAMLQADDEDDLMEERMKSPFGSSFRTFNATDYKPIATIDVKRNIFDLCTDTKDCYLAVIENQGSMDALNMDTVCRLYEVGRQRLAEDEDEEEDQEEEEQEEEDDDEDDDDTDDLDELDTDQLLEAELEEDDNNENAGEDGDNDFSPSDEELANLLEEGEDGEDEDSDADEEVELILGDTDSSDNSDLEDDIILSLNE

Consider `COc1ccc(C2(c3nc(NCCN)c4ccccc4n3)CC2)cc1`, for which the Kd – broadly, a measure of binding affinity in units of concentration – in test [1] was 26.7 µM. As to `Clc1ccc(C2(C3=Cc4ccccc4C4=NCCN34)CC2)cc1`, the values for the Kd in test [2] and in test [1] were 13 µM and 41 µM, respectively. Taken in the same sequence, the figures for `NC1=NCC(c2cccc(Oc3ccc(Cl)cc3)c2)C1` (stereo not drawn) were more than 500 µM and more than 100 µM.

Consider `CN1CCN(c2ccc3c(NCCN)nc(C4(c5ccc(Cl)cc5)CCCC4)nc3c2)CC1`, for which the Kd in test [1] turned out to be 0.098 µM. This counts as double-digit nanomolar. On the same count and under the same terms, the same measure for `CN1CCN(c2ccc3c(NCCN)nc(C4(c5ccc(Cl)cc5)CCCCC4)nc3c2)CC1`: 0.083 µM. `CC(C)(Cc1ccccc1)C1=Cc2ccccc2C2=NCCN12`: in test [2], the affinity, expressed as Kd, was 40 µM. `COc1ccc(C2(c3nc(NCCN)c4ccc(N5CCN(C(C)=O)CC5)cc4n3)CC2)cc1` returned a Kd in test [1] of 1.5 µM. Still for that read-out and setting: the same measure for `COc1ccc(C2(C3=Cc4cc(N5CCN(C)CC5)ccc4C4=NCCN34)CC2)cc1`: 11.4 µM; for `COc1ccc(C2(C3=Cc4ccccc4C4=NCCN34)CC2)cc1`: more than 50 µM; for `COc1ccc(C2(c3nc(NCCN)c4ccc(N5CCN(C)CC5)cc4n3)CC2)cc1`: 5.6 µM. In turn, `CC(=O)N1CCN(c2ccc3c(NCCN)nc(C4(c5ccc(Cl)cc5)CCCC4)nc3c2)CC1` gave a Kd in test [1] of 0.047 µM.
